Experimental data reported in patent US20040136938A1, “Composition of vitamin c and/or vitamin a” (priority 2000, published 2004).

Experiments:
[1] = system: fibroblasts of mammaplasty; experiment: Collagen synthesis by fibroblasts (Sirius red coloration); assay type: cell-based, human
Protocol: The fibroblasts of mammaplasty of a person, in passage 14, were seeded on 12-well plates at the rate of 0.5.10^5 cells per well. The cells are placed in culture for 48 hours in the presence of a DMEM culture medium at 10% of fetal calf serum (SVF), in stove (5% (v/v) CO2, 95% (v/v) air) at 37° C.
After rinsing with PBS, they are treated and placed again in culture for 48 hours in the presence of products to be tested and of DMEM without SVF.
The method is based on a specific coloration of collagen by the Sirius red. The cells are directly fixed by the Bouin liquid (1 ml/well) for 1 hour, after exhaustive rinsing with PBS. The fixer is then aspirated and the plates are rinsed with running water by immersion for 15 minutes.
The coloration is carried out under stirring for 1 hour (1 ml/well) and the plates are then rinsed with hydrochloric acid 0.01 N. Then the material is dissolved in 200 μl of sodium hydroxide 0.1N before transferring to the microtiter plates (Nunc). The optical density is measured at 550 nm against sodium hydroxide as a blank.
The counting of the cells is carried out in 4 wells of each plate, and one detaches the cells with tripsin at 0.05%.
One studied the effect of fucose and of the Mixture of oligofucoses-1 (at 10 μg/ml each) in the presence or absence of sodium ascorbate at 500 μg/ml. And then in the presence or absence of retinol (10 μg/ml).

cells = settings: cited from earlier work
[2] = system: fibroblasts of human skin; experiment: Cellular proliferation of fibroblasts of human skin ([3H]-thymidine incorporation, 72 h); assay type: cell-based; settings: for decrease in the cellular proliferation: retinol 20 μg/ml (69.72 μM) alone, vs. reference without retinol
Protocol: The Mixture of oligofucoses-1 as prepared in example 1 is tested in concentrations of 1 μg/ml and 10μg/ml, both alone and in the simultaneous presence of 375 μg/ml of sodium ascorbate and/or 20 μg/ml of retinol.
The fibroblasts of human skin used in this study come from the removal of skin from a person (28th passing). The cells were cultivated on 12-well plates, in a DMEM culture medium with 10% of fetal calf serum (SVF), 1% of antibiotics and of antifungus (PSF), and 1 μCi/ml of [^3H]-timidine (ICN) for 72 hours in the presence of the products to be tested at final concentrations of 1 μg/ml and 10 μg/ml.
After 72 hours of culture in stove (5% (v/v) CO2, 95% (v/v) air) at 37° C. in the presence of the tested products, the cells were washed four times with PBS, then the cellular carpet was detached for 0.05% of tripsin. Three ml of scintillation liquid were then added per sample, then the radioactivity incorporated in the cells is read in a computer with scintillation.
One incubated the cells with 20 μg/ml of retinol (69.72 μM). […] Two concentrations were tested: 1 μg/ml and 10 μg/ml.
One incubated the cells with 375 μg/ml of Na ascorbate (1.875 mM). […] Two concentrations were tested: 1 μg/ml and 10 μg/ml.
The cells were simultaneously incubated with 375 μg/ml of Na ascorbate and 20 μg/ml of retinol.

C[C@H](O)[C@@H](O)[C@@H](O)[C@H](O)C=O [fucose]
effect on synthesis of collagen in the presence of retinol ([1]; 10 μg/ml with retinol 10 μg/ml, 48 h): this inhibition is greatly abolished
effect on biosynthesis of collagen in the presence of sodium ascorbate ([1]; 10 μg/ml with sodium ascorbate 500 μg/ml, 48 h): stimulation of the biosynthesis of collagen
decrease in the amount of collagen synthesized by the fibroblasts ([1]; fucose alone, 48 h, DMEM without SVF): about 19%

O=C1O[C@H]([C@@H](O)CO)C(O)=C1O [ascorbate]
concentration at which cytotoxic effect can be observed (cells; cell detachment, slowed proliferation, cellular death): about 2.5 mM

O=C1O[C@H]([C@@H](O)CO)C(O)=C1O [ascorbic acid]
concentration from which cytotoxic effect starts (cells): about 0.01 % by weight

CC1=C(/C=C/C(C)=C/C=C/C(C)=C/CO)C(C)(C)CCC1 [Retinol, retinol]
decrease in the cellular proliferation [2]: about 45%
decrease in the cellular proliferation ([2]; listed as retinol): 42.5%
% vs. control (proliferation) ([2]; retinol 20 μg/ml alone): −42.5%
effect on synthesis of collagen ([1]; retinol alone (10 μg/ml)): inhibiting effect on the synthesis of collagen

O=C1O[C@H]([C@@H](O)CO)C([O-])=C1O.[Na+] [Na ascorbate, sodium ascorbate]
% vs. control (proliferation) ([2]; Na ascorbate 375 μg/ml alone): −64.4%
effect on synthesis of collagen ([1]; sodium ascorbate 500 μg/ml alone, with respect to the effect of 50 μg/ml): activates the synthesis of collagen very little
